Experimental data reported in patent EP4772509A1, “KINESIN KIF18A INHIBITOR, AND APPLICATION THEREOF” (Shanghai Apeiron Therapeutics Company Limited, priority 2023, dated 2025).
pIC50: −log10 of the molar value. Where “and” joins values, the source holds several entries; their conditions need not be identical. Equal values may be shown once.

Target: T1, Human KIF18A (amino acid sequence 1-417) (Homo sapiens, UniProt Q8NI77)
T1 construct: purchased Viva Biotech (Shanghai) Ltd
T1 sequence (Q8NI77 1-417): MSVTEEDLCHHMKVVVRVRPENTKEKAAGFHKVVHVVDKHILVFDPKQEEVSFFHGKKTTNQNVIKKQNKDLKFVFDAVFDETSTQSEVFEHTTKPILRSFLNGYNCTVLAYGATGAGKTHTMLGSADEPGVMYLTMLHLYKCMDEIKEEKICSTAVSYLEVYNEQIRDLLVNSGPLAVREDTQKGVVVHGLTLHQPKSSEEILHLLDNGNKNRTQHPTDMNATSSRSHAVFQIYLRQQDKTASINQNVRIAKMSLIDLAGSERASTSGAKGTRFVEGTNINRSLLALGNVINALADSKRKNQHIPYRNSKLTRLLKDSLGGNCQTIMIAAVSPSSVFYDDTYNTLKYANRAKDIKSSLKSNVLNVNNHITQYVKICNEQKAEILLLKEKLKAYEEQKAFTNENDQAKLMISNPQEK
Assay: Enzymatic activity test (ADP-Glo, microtubule-stimulated ATPase)
Type: biochemical
Details: 60 µg/mL microtubules, 25 µM ATP, 2.5 nM KIF18A protein, 120 min at ambient temperature, chemiluminescence; read-out: KIF18A IC50
Procedure: Materials: Human KIF18A (amino acid sequence 1-417) was purchased from Viva Biotech (Shanghai) Ltd.; the ADP-Glo™ protein kinase kit was acquired from Promega, USA; tubulin was sourced from Cytoskeleton, USA; and the 384-well assay plate and Envision multifunctional microplate reader were obtained from PerkinElmer, USA.
Enzymatic Activity Test: The compound powder was dissolved in DMSO to prepare a stock solution of 10 mM. Then gradient dilution was performed for the compounds in the microplate to achieve a final concentration of 0-10 µM. Then, 2.5 µL each of tubulin, compound, ATP, and KIF18A protein were added to the microplate in sequence for reaction at ambient temperature for 120 min. The final concentrations in the enzyme reaction were 60 µg/mL for microtubules, 25 µM for ATP, and 2.5 nM for KIF18A protein. After the enzyme reaction, 10 µL of ADP-GLO reaction reagent was added to each well and incubated at room temperature for 30 min. After that, 20 µL of detection reagent was added to each well and incubated at room temperature for 30 min in the dark. Finally, chemiluminescence detection was performed using the PerkinElmer Envision.

Molecule | pIC50
Cc1cc2nc(n1)N1CCC(F)(F)C(/C=C/CC3CC4(C3)CN(C4)c3cc(NS(=O)(=O)CCO)ccc3C(=O)N2)C1 (stereo not shown) [Example 47, N-(6^4,6^4-difluoro-5^1-methyl-3-oxo-4-aza-5(4,2)-pyrimidin-6(1,3)-piperidin-1(1,3)-azetidin-2(1,2)-benzene-10(1,3)-cyclobutyramide-7-en-2^5-yl)-2-hydroxyethane-1-sulfonamide] | 6.25 and 6.20
Cc1cc2nc(n1)N1CCC(F)(F)C(C=CCc3csc(c3)-c3cc(NS(=O)(=O)CCO)ccc3C(=O)N2)C1 (stereo not shown) [Example 66, N-(1^4,1^4-difluoro-2^6-methyl-4-oxo-3-aza-2(2,4)-pyrimidin-1(1,3)-piperidin-6(2,4)-thiophene-5(1,2)-benzoazacyclon-8-en-5^4-yl)-2-hydroxyethane-1-sulfonamide] | 7.37
2-Hydroxy-N-(8-methyl-2^1,3-dione-2^2,2^3-dihydro-2^1H-4,6-diaza-5(2,6)-pyridin-1(1,4)-piperidin-2(5,4)-indenoundecan e-9-en-2^7-yl)ethane-1-sulfonamide [Example 38] | 6.95
COc1cc2nc(n1)N1CCC(F)(F)C(CCC3=CC=C(S3)c3cc(NS(=O)(=O)CCO)ccc3C(=O)N2)C1 (stereo not shown) [Example 61, N-(2^4,2^4-difluoro-1^6-methoxy-7-oxo-8-aza-1(2,4)-pyrimidin-2(1,3)-piperidin-5(2,5)-thiophene-6(1,2)-benzeneheterocyclooctan-6^3-yl)-2-hydroxyethane-1-sulfonamide] | 7.22
Cc1cc2nc(n1)C1CN(/C=C/CC3CCN(CC3)c3cc(NS(=O)(=O)CCO)ccc3-c3cn-2nn3)CCC1(F)F (single isomer, unassigned) [Example 84D, N-((3^4Z,7E)-1^4,1^4-difluoro-2^6-methyl-3^1H-2(2,4)-pyrimidin-1(1,3),5(1,4)-dipiperidin-3(1,4)-triazole-4(1,2)-benzocyclooct-7-en-4^4-yl)-2-hydroxyethane-1-sulfonamide] | 6.55
Cc1cc2nc(n1)N1CCC(F)(F)C(/C=C\CC3CCN(CC3)c3cc(NS(=O)(=O)CCO)ccc3-c3cn-2nn3)C1 (single isomer, unassigned) [Example 84A, N-((3^4Z,7Z)-1^4,1^4-difluoro-2^6-methyl-3^1H-2(2,4)-pyrimidin-1(1,3),5(1,4)-dipiperidin-3(1,4)-triazole-4(1,2)-benzocyclooct-7-en-4^4-yl)-2-hydroxyethane-1-sulfonamide] | 6.51
Cc1cc2nc(n1)N1CCC(F)(F)C(CCC3=CC=C(S3)c3cc(NS(=O)(=O)CCO)ccc3C(=O)N2)C1 (stereo not shown) [Example 63, N-(2^4,2^4-difluoro-1^6-methyl-7-oxo-8-aza-1(2,4)-pyrimidin-2(1,3)-piperidin-5(2,5)-thiophene-6(1,2)-benzeneheterocyclooctan-6^5-yl)-2-hydroxyethane-1-sulfonamide] | 6.90
COc1cc2nc(n1)N1CCC(F)(F)C(CCCc3c(F)cc(cc3F)-c3cc(NS(=O)(=O)CCO)ccc3C(=O)N2)C1 (stereo not shown) [Example 59, 2-hydroxy-N-(1^4,1^4,6^3,6^5-tetrafluoro-2^6-methoxy-4-oxo-3-aza-2(2,4)-pyrimidin-1(1,3)-piperidin-5(1,2),6(1,4)-diphenylheterocyclononane-54-yl)ethane-1-sulfonamide] | 6.65
Cc1cc2nc(n1)N1CCC(F)(F)C(CCCc3csc(c3)-c3cc(NS(=O)(=O)CCO)ccc3C(=O)N2)C1 (stereo not shown) [Example 68, N-(1^4,1^4-difluoro-2^6-methyl-4-oxo-3-aza-2(2,4)-pyrimidin-1(1,3)-piperidin-6(2,4)-thiophene-5(1,2)-benzoazacyclononane-5^4-yl)-2-hydroxyethane-1-sulfonamide] | 6.81
Cc1cc2nc(n1)N1CCC(F)(F)C(/C=C\CC3CCN(CC3)c3cc(NS(=O)(=O)CCO)ccc3-c3cn-2nn3)C1 (single isomer, unassigned) [Example 84B, N-((3^4Z,7Z)-1^4,1^4-difluoro-2^6-methyl-3^1H-2(2,4)-pyrimidin-1(1,3),5(1,4)-dipiperidin-3(1,4)-triazole-4(1,2)-benzocyclooct-7-en-4^4-yl)-2-hydroxyethane-1-sulfonamide] | 6.59
COc1cc2nc(n1)N1CCC(F)(F)C(/C=C\C3=CC=C(S3)c3cc(NS(=O)(=O)CCO)ccc3C(=O)N2)C1 (stereo not shown) [Example 60, N-(2^4,2^4-difluoro-1^1-methoxy-7-oxo-8-aza-1(2,4)-pyrimidin-2(1,3)-piperidin-5(2,5)-thiophene-6(1,2)-benzenecyclooctane-3-en-6^5-yl)-2-hydroxyethane-1-sulfonamide] | 7.40
Cc1cc2nc(n1)NCC(C)C=CC1=CC=C(S1)c1cc(NS(=O)(=O)CCO)ccc1C(=O)N2 (stereo not shown) [Example 70, N-(5^6,8-dimethyl-3-oxo-4,6-diaza-5(4,2)-pyrimidin-1(2,5)-thiophene-2(1,2)-benzenecyclodec-9-en-25-yl)-2-hydroxyeth ane-1-sulfonamide] | 6.60
COc1cc2nc(n1)N1CCC(F)(F)C(CCCC3=CC=C(S3)c3cc(NS(=O)(=O)CCO)ccc3C(=O)N2)C1 (stereo not shown) [Example 65, N-(1^4,1^4-difluoro-2^6-methoxy-4-oxo-3-aza-2(2,4)-pyrimidin-1(1,3)-piperidin-6(2,5)-thiophene-5(1,2)-benzoazacyclononane-5^4-yl)-2-hydroxyethane-1-sulfonamide] | 6.87
Cc1cc2nc(n1)N1CCC(F)(F)C(CCc3csc(c3)-c3cc(NS(=O)(=O)CCO)ccc3C(=O)N2)C1 (stereo not shown) [Example 69, N-(2^4,2^4-difluoro-1^6-methyl-7-oxo-8-aza-1(2,4)-pyrimidin-2(1,3)-piperidin-5(2,4)-thiophene-6(1,2)-benzeneheterocyclooctan-6^5-yl)-2-hydroxyethane-1-sulfonamide] | 7.35
Cc1cc2nc(n1)N1CCC(F)(F)C(/C=C\C3=CC=C(S3)c3cc(NS(=O)(=O)CCO)ccc3C(=O)N2)C1 (stereo not shown) [Example 62, N-(2^4,2^4-difluoro-1^6-methyl-7-oxo-8-aza-1(2,4)-pyrimidin-2(1,3)-piperidin-5(2,5)-thiophene-6(1,2)-benzeneheterocyclooct-3-en-6^5-yl)-2-hydroxyethane-1-sulfonamide] | 7.46
COc1cc2nc(n1)N1CCC(F)(F)C(/C=C\CC3=CC=C(S3)c3cc(NS(=O)(=O)CCO)ccc3C(=O)N2)C1 (stereo not shown) [Example 64, N-(1^4,1^4-difluoro-2^6-methoxy-4-oxo-3-aza-2(2,4)-pyrimidin-1(1,3)-piperidin-6(2,5)-thiophene-5(1,2)-benzoazacyclon-8-en-5^4-yl)-2-hydroxyethane-1-sulfonamide] | 7.01

Test system: OVCAR3 cells
Assay: Cell proliferation activity test (CyQUANT Direct)
Type: cell-based
Details: 3 days, 0.2% DMSO, CyQUANT fluorescence
Procedure: Materials and Cells: OVCAR3 cells were purchased from Nanjing Cobioer Biosciences Co., Ltd. RPMI-1640 medium, fetal bovine serum, and the CyQUANT Direct Cell Proliferation Assay kit were purchased from Thermo Fisher Scientific, USA; 96-well cell culture plates were sourced from Corning, USA.
Cell Culture: OVCAR3 cells were cultured with RPMI-1640 medium containing 10% fetal bovine serum and incubated in a 5% CO2 incubator at 37°C. Only cells in the logarithmic growth phase could be used for the test.
OVCAR3 cells were inoculated into a 96-well cell culture plate at 90 µL per well and incubated overnight in a 5% CO2 incubator at 37°C. The compound powder was dissolved in DMSO to prepare a stock solution of 10 mM. Then gradient dilution was performed for the compounds in the microplate to achieve a final concentration of 0-10 µM. 10 µL of cell culture medium containing compounds was added to each well to make the final DMSO content 0.2%. The cell plates were incubated in a 5% CO2 incubator at 37°C for 3 days. 100 µL of CyQUANT detection reagent was added to each well, reacted at 37°C for 60 min, and fluorescence detection was performed using the PerkinElmer Envision.

Molecule | pIC50
Cc1cc2nc(n1)C1CN(/C=C/CC3CCN(CC3)c3cc(NS(=O)(=O)CCO)ccc3-c3cn-2nn3)CCC1(F)F (single isomer, unassigned) [Example 84D, N-((3^4Z,7E)-1^4,1^4-difluoro-2^6-methyl-3^1H-2(2,4)-pyrimidin-1(1,3),5(1,4)-dipiperidin-3(1,4)-triazole-4(1,2)-benzocyclooct-7-en-4^4-yl)-2-hydroxyethane-1-sulfonamide] | < 5.52
Cc1cc2nc(n1)N1CCC(F)(F)C(/C=C\CC3CCN(CC3)c3cc(NS(=O)(=O)CCO)ccc3-c3cn-2nn3)C1 (single isomer, unassigned) [Example 84A, N-((3^4Z,7Z)-1^4,1^4-difluoro-2^6-methyl-3^1H-2(2,4)-pyrimidin-1(1,3),5(1,4)-dipiperidin-3(1,4)-triazole-4(1,2)-benzocyclooct-7-en-4^4-yl)-2-hydroxyethane-1-sulfonamide] | 7.59
Cc1cc2nc(n1)N1CCC(F)(F)C(/C=C\CC3CCN(CC3)c3cc(NS(=O)(=O)CCO)ccc3-c3cn-2nn3)C1 (single isomer, unassigned) [Example 84B, N-((3^4Z,7Z)-1^4,1^4-difluoro-2^6-methyl-3^1H-2(2,4)-pyrimidin-1(1,3),5(1,4)-dipiperidin-3(1,4)-triazole-4(1,2)-benzocyclooct-7-en-4^4-yl)-2-hydroxyethane-1-sulfonamide] | 6.33

Same assay, conditions: Homo sapiens, OVCAR-3, 72 h, 3 days, 0.2% DMSO, CyQUANT fluorescence

Molecule | pIC50
Cc1cc2nc(n1)N1CCC(F)(F)C(C=CCC3CCN(CC3)c3cc(NS(=O)(=O)CCO)ccc3-n3cc-2nn3)C1 (stereo not shown) [Example 81, N-((3^4,7)-1^4,1^4-difluoro-2^6-methyl-3^1H-2(2,4)-pyrimidin-1(1,3),5(1,4)-dipiperidin-3(4,1)-triazole-4(1,2)-benzocyclooct-7-en-44-yl)-2-hydroxyethane-1-sulfonamide] | 7.47
Cc1cc2nc(n1)N1CCC(F)(F)C(/C=C\c3ccc(cc3)-c3cc(NS(=O)(=O)CCO)ccc3C(=O)N2)C1 (stereo not shown) [Example 43, N-(2^4,2^4-difluoro-1^6-methyl-7-oxo-8-aza-1(2,4)-pyrimidin-2(1,3)-piperidin-5(1,4),6(1,2)-diphenylcyclooct-3-en-6^5-yl)-2-hydroxyethane-1-sulfonamide] | 5.59
Cc1cc2nc(n1)N1CCC(F)=C(/C=C/CC3CCN(CC3)c3cc(NS(=O)(=O)CCO)ccc3-n3cc-2nn3)C1 [Example 83, N-((3^4Z,7E)-1^4-fluoro-2^6-methyl-1^1,1^2,1^3,16-tetrahydro-3^1H-2(2,4)-pyrimidin-1(1,5)-pyridin-5(1,4)-piperidin-3(4,1)-triazole-4(1,2)-benzylcyclooct-7-en-4^4-yl)-2-hydroxyethane-1-sulfonamide] | 7.00
